# Several values for one entry are separate records, joined by “and”; a condition that tells them apart may be missing. Equal entries are not always repeated. Where two headings read alike, the source gives them in different places.
# Legend:
# 84V90M [1] = target: T1, 84V90M (Human immunodeficiency virus type 1 group M subtype B, UniProt P04585, I572V/L578M); type: biochemical, HIV; details: Enzymatic assay
# [2] = target: T2, recombinant HIV-1 protease (Human immunodeficiency virus type 1 group M subtype B, UniProt P04585); assay: biochemical; details: for IC50: read-out: WT IC50
# T2 construct: Enzyme: recombinant HIV-1 protease expressed in E. Coli; purchased Bachem California, Inc. H-9040; host or cells: E. coli
# 84V90M [3] = target: T1, 84V90M; assay: cell-based; set-up: species or system HIV; details: Cell-based assay (MT-4)
# [4] = test system: wild-type HIV-1 strain IIIB; assay: microbe, parasite or virus in culture; type: cell-based
# [5] = test system: mutant HIV-1 with I84V/L90M mutations; assay: microbe, parasite or virus in culture; type: cell-based
# I84V/L90M = test system: I84V/L90M; set-up: key to the marks not given beside the values
# HIV = assay: microbe, parasite or virus in culture; type: cell-based; details: Human immunodeficiency virus 1
# [6] = Human immunodeficiency virus 1, IIIB
structure (smiles),measurement,setting,value
Nc1n[nH]c2ccc(CN3C(=O)N(Cc4cccc(OCP(=O)(OCc5ccccc5)OCc5ccccc5)c4)C(Cc4ccccc4)C(O)C(O)C3Cc3ccccc3)cc12 (stereo not shown),IC50,84V90M [1],43 nM
same,Ki,[2]; read-out: Ki,0.177 nM
same,IC50,[2],18 nM
same,EC50,84V90M [3],> 6000 nM
CCOC(=O)C(CC(C)C)NP(=O)(COc1ccc(CC(NC(=O)OC2COC3OCCC23)C(O)CN(CC(C)C)S(=O)(=O)c2ccc(OC)cc2)cc1)NC(CC(C)C)C(=O)OCC (stereo not shown) [Example 16g],Ki,[2]; read-out: HIV-1 protease inhibition Ki,0.029 ± 0.009 nM
same,EC50,[4]; read-out: Anti-HIV-1 Cell Culture Activity EC50,6.8 ± 0.4 nM
Nc1n[nH]c2ccc(CN3C(=O)N(CCCCOCP(=O)(O)O)C(Cc4ccccc4)C(O)C(O)C3Cc3ccccc3)cc12 (stereo not shown) [CH2OCH2PO3H2],IC50,84V90M [1],205 nM
same,EC50,84V90M [3],> 4240 nM
CC(C)CN(CC(O)C(Cc1ccccc1)NC(=O)OC1COC2OCCC12)S(=O)(=O)c1ccc(OCP(=O)(OCc2ccccc2)OCc2ccccc2)cc1 (stereo not shown),EC50,[4]; [6],50 to 500 nM
same,I84V/L90M fold change,[5]; fold change,+++ (>30)
COc1ccc(S(=O)(=O)N(CC(C)C)CC(O)C(Cc2ccc(OCP(=O)(OC(C)C)OC(C)C)cc2)NC(=O)OC2COC3OCCC23)cc1 (stereo not shown) [drawing 1768 R1=OiPr R2=OiPr],I84V/L90M fold change,"[5]; fold difference in EC50 mutant vs wild type, class symbols",− (≦3)
COc1ccc(S(=O)(=O)N(CC(C)C)CC(O)C(Cc2ccc(CO)cc2)NC(=O)OC2COC3OCCC23)cc1 (stereo not shown),EC50,[4]; [6],< 50 nM
same,I84V/L90M fold change,[5]; fold change,− (≦3)
Nc1n[nH]c2ccc(CN3C(=O)N(Cc4cccc(O)c4)C(Cc4ccccc4)C(O)C(O)C3Cc3ccccc3)cc12 (stereo not shown) [m-OH],IC50,84V90M [1],12 nM
same,Ki,[2]; read-out: Ki,0.128 nM
same,IC50,[2],1.6 nM
same,EC50,84V90M [3],475 nM
COc1ccc(S(=O)(=O)N(CC(O)C(Cc2ccccc2)NC(=O)OC2COC3OCCC23)CC(C)(C)COCP(=O)(O)O)cc1 (stereo not shown),I84V/L90M fold change,I84V/L90M,+++
same,EC50,HIV,500 to 5000 nM
Nc1n[nH]c2ccc(CN3C(=O)N(CCCOCP(=O)(O)O)C(Cc4ccccc4)C(O)C(O)C3Cc3ccccc3)cc12 (stereo not shown) [OCH2PO3H2],IC50,84V90M [1],137 nM
same,EC50,84V90M [3],> 6000 nM
COc1ccc(S(=O)(=O)N(CCN(C)C)CC(O)C(Cc2ccc(O)cc2)NC(=O)OC2COC3OCCC23)cc1 (stereo not shown),EC50,[4]; [6],50 to 500 nM
same,I84V/L90M fold change,[5]; fold change,− (≦3)
CCOP(=O)(COCCCCN1C(=O)N(Cc2ccc3[nH]nc(N)c3c2)C(Cc2ccccc2)C(O)C(O)C1Cc1ccccc1)OCC (stereo not shown) [CH2OCH2PO3Et2],IC50,84V90M [1],123 nM
same,EC50,84V90M [3],3300 nM
"CCOP(=O)(COc1ccc(CC2C(O)C(O)C(Cc3ccc(OC)cc3)N(Cc3cccnc3)C(=O)N2Cc2cccnc2)cc1)OCC (stereo not shown) [OCH3, m-pyridine, OCH2PO3Et2]",EC50,84V90M [3],765 nM
COc1ccc(S(=O)(=O)N(CC(O)C(Cc2ccccc2)NC(=O)OC2COC3OCCC23)CC(C)(C)COCP(=O)(OCc2ccccc2)OCc2ccccc2)cc1 (stereo not shown),I84V/L90M fold change,I84V/L90M,++
same,EC50,HIV,< 50 nM
"COc1ccc(S(=O)(=O)N(CC(C)C)C[C@@H](O)[C@H](Cc2ccc(OCP(=O)(Oc3ccccc3)Oc3ccccc3)cc2)NC(=O)OC2CCOC2)cc1 (stereo partly shown) [OMe, phenol]",Ki,[2]; read-out: Ki,< 0.01 nM
same,EC50,[4]; read-out: EC50,< 50 nM
same,I84V/L90M fold change,[5]; fold change,+ (>3 to ≦10)
CCCCN1C(=O)N(Cc2ccc3[nH]nc(N)c3c2)C(Cc2ccccc2)C(O)C(O)C1Cc1ccccc1 (stereo not shown) [DMP-851],IC50,84V90M [1],9.4 nM
same,EC50,84V90M [3],918 nM
CCOP(=O)(COCC(C)(C)CN(CC(O)C(Cc1ccccc1)NC(=O)OC1COC2OCCC12)S(=O)(=O)c1ccc(OC)cc1)OCC (stereo not shown),I84V/L90M fold change,I84V/L90M,+++
same,EC50,HIV,< 50 nM
CC(C)CN(CC(O)C(Cc1ccccc1)NC(=O)OC1COC2OCCC12)S(=O)(=O)c1cccc(OCP(=O)(OCc2ccccc2)OCc2ccccc2)c1 (stereo not shown),EC50,[4]; [6],< 50 nM
same,I84V/L90M fold change,[5]; fold change,++ (>10 to ≦30)
CCOC(=O)C(C)NP(=O)(COc1cccc(CN2C(=O)N(Cc3ccc4[nH]nc(N)c4c3)C(Cc3ccccc3)C(O)C(O)C2Cc2ccccc2)c1)NC(C)C(=O)OCC (stereo not shown) [m-bis-Ala-Et],EC50,84V90M [3],> 6000 nM
"CCOP(=O)(COc1ccc(CC(NC(=O)OC2CCOC2)C(O)CN(CC(C)C)S(=O)(=O)c2ccc(OC)cc2)cc1)OCC (stereo not shown) [OMe, OEt]",Ki,[2]; read-out: Ki,< 0.01 nM and 0.01 to 0.1 nM
same,EC50,[4]; read-out: EC50,< 50 nM
COc1cccc(S(=O)(=O)N(CC(C)C)CC(O)C(Cc2ccccc2)NC(=O)OC2COC3OCCC23)c1 (stereo not shown),EC50,[4]; [6],< 50 nM
same,I84V/L90M fold change,[5]; fold change,++ (>10 to ≦30)
"CC(C)CN(C[C@@H](O)[C@H](Cc1ccc(OCP(=O)(Oc2ccccc2)Oc2ccccc2)cc1)NC(=O)OC1CCOC1)S(=O)(=O)c1ccc(N)cc1 (stereo partly shown) [NH2, phenol]",EC50,[4]; read-out: EC50,50 to 500 nM
same,I84V/L90M fold change,[5]; fold change,− (≦3)
COc1ccc(S(=O)(=O)N(CCN(C)C)CC(O)C(Cc2ccc(OCc3ccccc3)cc2)NC(=O)OC2COC3OCCC23)cc1 (stereo not shown),EC50,[4]; [6],< 50 nM
same,I84V/L90M fold change,[5]; fold change,− (≦3)

# Source: patent US20070010489A1 (priority 2002, published 2007)
